Assay [1] deals with SARS-CoV-2 3CLpro (Severe acute respiratory syndrome coronavirus 2, UniProt P0DTD1). Format: biochemical. Particulars: read-out: 3CLpro IC50.
For assay [2], the target named is 3CLpro (Severe acute respiratory syndrome coronavirus 2, UniProt P0DTD1). Format: biochemical, SARS-CoV-2.
Assay [3] relates to SARS-CoV-2. In words: microbe, parasite or virus in culture. Format: cell-based. Particulars: Severe acute respiratory syndrome coronavirus 2.
The subject of assay [4] is COVID-19. Particulars: COVID-19 patients, ref Beigel et al., 2020, cited from earlier work.

The term IC50 denotes the concentration that gives 50% inhibition. One may read the EC50 as the concentration at which the effect is half-maximal. The low end stands for greater potency, the high end for weaker potency.

SMILES strings stand for the structures.

With `COC(=O)c1c(C)[nH]c(C(=O)COn2nnc3ccc(S(=O)(=O)N(C)C)cc32)c1C` [Compound 12], the figures for the IC50 in assay [1] and in assay [2] (read-out: FRET IC50) were 1320 nM and 350 nM, respectively.

With `COc1ccc(-c2nc(NC(=O)c3ccc(C)c(F)c3)n[nH]2)cc1OC` [Compound 30], in assay [2], the “FRET IC50” value is recorded as “high fluorescent signals”.

`CCC(CC)COC(=O)[C@H](C)N[P@](=O)(OC[C@H]1O[C@@](C#N)(c2ccc3c(N)ncnn23)[C@H](O)[C@@H]1O)Oc1ccccc1` [Remdesivir] came in with an EC50 in assay [3] of 1840 nM. For the same compound, the recovery in assay [4] (reduced from 15 days) is reported as 11 days. Further, the effect on mortality result in assay [4] is reported as “no significant effect”.

The record behind these values is publication PMC8906060 (Antiviral Research, 2022).
